The series is described as follows: gradient 5% acetonitrile 3 min, to 50% in 2 min, to 85% in 15 min, held 3 min, 100 µL/min. The conditions noted are these: column: Zorbax Extend-C18 2.1 x 50 mm; eluents: water / acetonitrile, 0.1% formic acid. A digest of the protocol: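 Values are retention times taken from adduct peaks that software picked and an analyst inspected. The pure standards were run as mixtures of ~100 molecules on HPLC linked to a quadrupole time-of-flight mass spectrometer, in positive and negative ionization mode. A Zorbax Extend-C18 column (2.1 × 50 mm, 1.8 μm) was used at 100 μL/min with water and acetonitrile, each including 0.1% formic acid.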
`COc1ccc(NC(=O)C2CCN(c3cc(N4CCCC4)ncn3)CC2)cc1Cl` displayed an RP-LC retention time of 677 s.
Compound `O=C(Cn1c(=O)cc(-c2nc(C3CC3)no2)c2ccccc21)Nc1cccc(F)c1` returned an RP-LC retention time of 952 s.
As to `CC(C)CCNC(=O)C1CCCN(c2nc3ccsc3c(=O)n2-c2ccc(F)cc2)C1` (centres undefined), the RP-LC retention time was 884 s.
Compound `O=C(NCc1csc(C2CCN(C(=O)c3cc(F)ccc3F)CC2)n1)C1CC1` came in with an RP-LC retention time of 668 s.
Consider `CCOc1ccc(N2C(=O)C3N=NN(Cc4nc(-c5ccccc5Br)no4)C3C2=O)cc1` (centres undefined), for which the RP-LC retention time was 1010 s.
To `O=C(NCc1ccc(N2CCOCC2)cc1)C1CCCN(c2nccnc2Sc2ccccc2)C1` (centres undefined) belongs 933 s; to `CCc1ccc(S(=O)(=O)N2CCC(n3cnnc3C3CC3)CC2)cc1`, 772 s.
Regarding `COc1cccc2cc(C(=O)NCC3CCN(C(=O)c4snnc4C)CC3)oc12`, the RP-LC retention time was found to be 697 s.
The compound `O=C(c1csc(N2CCCCCC2)n1)N1CCOCC1` showed an RP-LC retention time of 767 s.
For the compound `COc1cc(O)cc(O)c1C(=O)/C=C/c1ccccc1`, the RP-LC retention time is 903 s.
To `Cc1nc(-c2csc(S(=O)(=O)N3CCC(C(=O)NCCc4cccs4)CC3)c2)no1` belongs 860 s; to `CCC1Oc2ccc(S(=O)(=O)N3CCC(C(=O)Nc4cccc(F)c4)CC3)cc2NC1=O` (centres undefined), 910 s; to `CCOc1ccccc1CNC(=O)CCc1nnc2c3cc(-c4ccc(F)cc4)nn3ccn12`, 830 s.
With `O=C(NCC(c1cccs1)S(=O)(=O)c1cccs1)NC1CCCCC1` (centres undefined), the RP-LC retention time worked out at 790 s.
Consider `CCOC(=O)CCc1c(C)nn(-c2cc(N(C)C)ncn2)c1C`, for which the RP-LC retention time is 834 s.
`O=C(Cc1scnc1-c1cccs1)N1CCN(c2ccccn2)CC1`: the RP-LC retention time turned out to be 596 s.
To `O=C(Cn1ncc2c(N3CCN(c4ccccn4)CC3)ncnc21)Nc1cc(F)ccc1F` belongs 615 s; to `COc1cccc(C(=O)NC2(C(F)(F)F)C(=O)N(CC3CCCO3)C3=C2C(=O)CC(C)(C)C3)c1` (centres undefined), 922 s.
To `CC(CCc1ccccc1)NC(=O)CCC(=O)N1CCCn2nc(-c3cccn3C)cc21` (centres undefined) belongs 842 s; to `O=C(Cn1cncc(-c2nc(-c3ccccc3)cs2)c1=O)N1CCCC1`, 789 s.
Turning to `Cc1cccc(N2C(=O)CN(CCc3ccc(F)cc3)[C@H]3CS(=O)(=O)C[C@H]32)c1`, the RP-LC retention time turned out to be 839 s.
In turn, `CCOC(=O)Cc1ccc(NC(=O)Nc2cccn3cnnc23)cc1` registered an RP-LC retention time of 698 s.
For the compound `COc1cn(CC(=O)NCc2ccco2)c(CO)cc1=O`, the RP-LC retention time was determined as 544 s.
`Cc1ccc(NC(=O)N2CC(n3cnnc3-c3ccccc3)C2)cc1C` gave an RP-LC retention time of 715 s.
As for `CCc1cc(=O)n(CC(=O)NCc2ccc(Cl)cc2)c(N)n1`, the RP-LC retention time was 627 s.
In turn, `CC1CN(C(=O)C2CCN(S(=O)(=O)c3cccnc3)CC2)c2ccccc2O1` (centres undefined) returned an RP-LC retention time of 825 s.
With `Cc1ccc(S(=O)(=O)N2CCC(n3c(-c4ccoc4)nc4cccnc43)C2)cc1F` (centres undefined), the RP-LC retention time came out at 910 s.
With `COC(=O)c1cccc(N2C=C(C#N)S(=O)(=O)c3ccc(F)cc32)c1`, the RP-LC retention time stood at 860 s.
For `CCCCn1c(=O)c2ccccc2n(Cc2nc(-c3ccc(C)c(C)c3)no2)c1=O`, the RP-LC retention time is 1290 s.
As for `CCCS(=O)(=O)N1CCC2(CC1)CN(c1cccc(F)c1)C2c1ccccc1` (centres undefined), the RP-LC retention time is 1290 s.
Compound `CCn1cc(CN2CCC(C(=O)NCc3ccco3)CC2)c2cc(Cl)ccc21` displayed an RP-LC retention time of 722 s.
As for `O=C(NCc1ccco1)C1CCN(Cc2cc3ccccc3n2Cc2cccc(Cl)c2)CC1`, the figure is 853 s; as for `Cc1cc(C)cc(NC(=O)N2CCN(c3ccc(=O)n(-c4ccccc4)n3)CC2)c1`, 832 s.
The compound `OC1(c2ccccn2)CCOC2(CCN(Cc3ccccc3OC(F)(F)F)CC2)C1` (centres undefined) displayed an RP-LC retention time of 601 s.
For `Cc1ccc(Cl)cc1NC(=O)NCCc1cn(CC(C)C)c2ncccc12`, the RP-LC retention time came out at 946 s.
As for `Cc1nn(CCCC(=O)NCCCN2CCCCC2)c(=O)c2c1sc1ccccc12`, the RP-LC retention time worked out at 645 s.
`COc1ccc(Cl)cc1C(=O)Nc1ccc2c(c1)C(=O)NCCO2` showed an RP-LC retention time of 951 s.
The compound `Cc1ccc2c(=O)c3c([nH]c2c1C)CCN(CC(=O)Nc1cc(F)ccc1F)C3` registered an RP-LC retention time of 638 s.
The compound `Cc1ccc(Nc2nc(C)cc3nn(CC(=O)NC4CCCC4)c(=O)n23)cc1` came in with an RP-LC retention time of 640 s.
Regarding `O[C@@H]1CCCC[C@H]1N1CCC(c2ccccc2)CC1`, the RP-LC retention time was 661 s.
Consider `CC(C)c1noc(C2CCCCN2Cc2nc(-c3cccnc3)no2)n1` (centres undefined), for which the RP-LC retention time amounted to 832 s.
For the compound `CCCN1C(=O)c2cc(S(=O)(=O)Nc3ccccc3OC)ccc2Oc2cccnc21`, the RP-LC retention time was found to be 1080 s.
The compound `Cc1c(C2CCN(C(=O)c3ccc4c(c3)OCO4)CC2)noc1N` gave an RP-LC retention time of 663 s.
Turning to `COC(=O)c1ccc(NC(=O)CN2CCc3[nH]c4c(C)c(Cl)ccc4c(=O)c3C2)cc1`, the RP-LC retention time was 569 s.
The compound `COc1ccc(-c2noc(C3CCCN3C(=O)Nc3ccc(F)c(Cl)c3)n2)cc1` (centres undefined) came in with an RP-LC retention time of 1030 s.
As to `CCN(CC)CCCNC(=O)C(C)n1c(=O)c(C(F)(F)F)nc2ccccc21` (centres undefined), the RP-LC retention time came out at 664 s.
To `Cc1ccc(C)c(NC(=O)c2cn(-c3ncccc3-c3nc(C4CC4)no3)cn2)c1` belongs 973 s; to `Cc1cccc(S(=O)(=O)N2CCC(N3CCN(Cc4ccccc4)C(=O)C3=O)CC2)c1`, 838 s; to `COc1ccc(C2C(C(=O)Nc3cc(OC)ccc3OC)c3ccccc3C(=O)N2C)cc1` (centres undefined), 929 s.
Compound `O=C(c1ccccc1)N1CCN(C(=O)c2nnn3c2COC(c2ccc(Cl)cc2)C3)CC1` (centres undefined) showed an RP-LC retention time of 873 s.
In the case of `CC(C)(C)c1cccc(NC(=O)C2CCc3nc(N4CCOCC4)ncc3C2)c1` (centres undefined), the RP-LC retention time turned out to be 945 s.
To `COc1ccc(CC(=O)NC(C(=O)Nc2nc3ccccc3[nH]2)C(C)C)c(Cl)c1` (centres undefined) belongs 744 s; to `CC1(C(=O)NCc2ccccc2Cl)Cn2cnc(C(=O)NC3CCCCC3)c2C(=O)N1C1CC1` (centres undefined), 840 s.
With `NS(=O)(=O)c1ccc(CCNC(=O)C2CCCN(c3nc4ccccc4[nH]3)C2)cc1` (centres undefined), the RP-LC retention time was 577 s.
The compound `O=C(O)COC(=O)Cc1ccccc1Nc1c(Cl)cccc1Cl` came in with an RP-LC retention time of 957 s.
In turn, `CCCc1cc(N2CCN(C(=O)c3ccc4c(c3)OCO4)CC2)nc2nncn12` showed an RP-LC retention time of 622 s.
Consider `CN(CCc1noc(COc2cccc(C(F)(F)F)c2)n1)C(=O)c1cccs1`, for which the RP-LC retention time is 941 s.
Turning to `CCSc1nnc(-c2nn(C)c3c2CN(C(=O)C2CCCCC2)CC3)n1C`, the RP-LC retention time came to 791 s.
Turning to `CN1C2CCC1CC(OC(=O)C(CO)c1ccccc1)C2` (centres undefined), the RP-LC retention time came to 638 s.
As for `CC1CN2C=NC(N3CCN(S(=O)(=O)Cc4cccc(Cl)c4)CC3)=CC2=N1` (centres undefined), the RP-LC retention time amounted to 627 s.
In turn, `O=C(NCc1cccs1)N1CCN(c2nc3c(F)cc(F)cc3s2)CC1` returned an RP-LC retention time of 849 s.
`O=C(C1CC1)N1CCc2sc(S(=O)(=O)Nc3ccc(N4CCOCC4)cc3)cc2C1` yielded an RP-LC retention time of 743 s.
Compound `O=S(=O)(NCCc1ccccc1)c1ccccc1-c1nc(-c2ccccc2)no1` yielded an RP-LC retention time of 1210 s.
As to `COc1cccc(C2=NN(C(C)=O)C(c3ccc(Br)cc3)O2)c1OC(C)=O` (centres undefined), the RP-LC retention time was determined as 1040 s.
With `CCn1cc(-c2ccc(Cl)cc2)cc1C(=O)NCCOC`, the RP-LC retention time was 954 s.
With `CCn1c(=O)sc2cc(S(=O)(=O)N3CCC(C(=O)NCc4ccc(OC)cc4)CC3)ccc21`, the RP-LC retention time is 978 s.
`O=C(NCCc1c[nH]c2ccc(Cl)cc12)c1cc2n(n1)CCCN(Cc1ccccc1)C2=O`: the RP-LC retention time was determined as 904 s.
For the compound `O=C(Cn1ccn2nc(-c3ccccc3)c(CO)c2c1=O)Nc1cccc(Cl)c1`, the RP-LC retention time amounted to 856 s.
Compound `O=C(NCc1cccs1)NCC1(CO)CC1` gave an RP-LC retention time of 592 s.
As for `O=C(N[C@H]1C[C@@H]2C[C@H]1N(C(=O)Cc1c(F)cccc1Cl)C2)c1ccccc1`, the figure is 827 s; as for `COc1ccc(N2C(=O)C3N=NN(c4ccc(F)cc4)C3C2=O)cc1` (centres undefined), 923 s.
On to `CCc1ccc(S(=O)(=O)NCCc2csc3nc(-c4cccc(F)c4)nn23)s1`, for which the RP-LC retention time was determined as 994 s.
For `CCc1ccc(NC(=O)C2CCCN2S(=O)(=O)c2cc3c(cc2C)NC(=O)C(C)O3)cc1` (centres undefined), the RP-LC retention time is 842 s.
As for `Cc1ccc(C)c(Cn2nc3ccc(S(=O)(=O)N4CCSCC4)cn3c2=O)c1`, the figure is 996 s; as for `O=CN1CC/C(=C/c2ccc3c(c2)OCO3)C1=O`, 784 s.
In turn, `CCc1nnc(-c2ccc3ccn(CC(=O)Nc4cc(OC)ccc4OC)c3c2)o1` yielded an RP-LC retention time of 770 s.
Regarding `Cc1ccc(C(=O)NC2CCN(c3ccc(C)cc3)C2=O)cc1` (centres undefined), the RP-LC retention time turned out to be 825 s.
To `CCOCCCNC(=O)Nc1ccc2nc(N3CCOCC3)cc(C)c2c1` belongs 596 s.
For the compound `CCc1nnc(-c2cc(NC(=O)C3CCN(C(C)=O)CC3)c(C)s2)o1`, the RP-LC retention time stood at 697 s.
